Test results taken from PMC10999558, “Analyzing resistome in soil and Human gut: a study on the characterization and risk evaluation of antimicrobial peptide resistance” (Frontiers in Microbiology, 2024).

What was measured:
Format in all cases: cell-based, Escherichia coli
Settings in all cases: MHB, 37°C, 24 h, triplicate
[1] = system: E. coli DH5α; assay: MIC, broth microdilution, E. coli DH5α carrying pUC118 or resistance-conferring plasmids
Procedure: (§1) Escherichia coli DH5α, E. coli BL21(DE3), and E. coli JM109 were utilized in this study.
(§2) The MICs were determined using the broth microdilution method in 96-well microtiter plates ([Wiegand et al., 2008]). In brief, a 1:100 dilution of the mid-exponential phase bacterial culture (OD600 = 0.5), consisting of 5 μL (1 × 10^5 CFU/mL), was introduced into polypropylene 96-well plates. These plates contained a two-fold dilution series of AMP in a total volume of 100 μL MHB per well. The incubation of the plates occurred at 37°C in a humidity chamber. The MIC was identified as the lowest concentration that hindered visible bacterial growth after 24 h of incubation. Each experiment was conducted in triplicate.
(§3) Following validation, the colonies displaying resistance underwent additional testing via MIC assessments for the remaining four AMPs that were not employed during the selection process. This experimental procedure was carried out in triplicate.

[2] = system: E. coli JM109; assay: MIC, broth microdilution, retransformed E. coli JM109
Procedure: as §1, §2
(§4) Before washing down the colonies, we randomly selected two clones from each plate containing distinct AMP. Colony PCRs were conducted using M13 primer pairs to validate the presence of inserts and determine their sizes. The selected colonies were then subjected to sequencing. The specific details are provided in Supplementary Table S2. Following that, plasmids were isolated using the Plasmid Midiprep Kit (Zomanbio, ZP103) following the manufacturer’s guidelines. After the plasmids were successfully reintroduced into E. coli JM109 and E. coli BL 21(DE3), the MICs of the transformed strains against the AMP used for selection were tested. This testing process was carried out in triplicate.
as §3

[3] = system: E. coli BL21(DE3); assay: MIC, broth microdilution, retransformed E. coli BL21(DE3)
Procedure: as §1, §2, §4, §3

Iseganan [IB367]
MIC ([1]; E. coli DH5α containing pUC118 plasmids): 16 µg/mL
MIC ([1]; colony pUC118-DH5α (control, no insert)): 16 µg/mL
MIC ([1]; colony pUC118-FCST1-DH5α (feces insert 1 selected against colistin)): 16 µg/mL
MIC ([1]; colony pUC118-FCST2-DH5α (feces insert 2 selected against colistin)): 16 µg/mL
MIC ([1]; colony pUC118-FGQ1-DH5α (feces insert 1 selected against melittin)): 16 µg/mL
MIC ([1]; colony pUC118-FGQ2-DH5α (feces insert 2 selected against melittin)): 32 µg/mL
MIC ([1]; colony pUC118-FIB1-DH5α (feces insert 1 selected against iseganan)): 32 µg/mL
MIC ([1]; colony pUC118-FIB2-DH5α (feces insert 2 selected against iseganan)): 32 µg/mL
MIC ([1]; colony pUC118-FPB1-DH5α (feces insert 1 selected against polymyxin B)): 32 µg/mL
MIC ([1]; colony pUC118-FPB2-DH5α (feces insert 2 selected against polymyxin B)): 16 µg/mL
MIC ([1]; colony pUC118-FSA1-DH5α (feces insert 1 selected against cathelicidin-DM)): 16 µg/mL
MIC ([1]; colony pUC118-FSA2-DH5α (feces insert 2 selected against cathelicidin-DM)): 16 µg/mL
MIC ([1]; colony pUC118-SCST1-DH5α (soil insert 1 selected against colistin)): 16 µg/mL
MIC ([1]; colony pUC118-SCST2-DH5α (soil insert 2 selected against colistin)): 16 µg/mL
MIC ([1]; colony pUC118-SGQ1-DH5α (soil insert 1 selected against melittin)): 16 µg/mL
MIC ([1]; colony pUC118-SGQ2-DH5α (soil insert 2 selected against melittin)): 16 µg/mL
MIC ([1]; colony pUC118-SIB1-DH5α (soil insert 1 selected against iseganan)): 32 µg/mL
MIC ([1]; colony pUC118-SIB2-DH5α (soil insert 2 selected against iseganan)): 32 µg/mL
MIC ([1]; colony pUC118-SPB1-DH5α (soil insert 1 selected against polymyxin B)): 16 µg/mL
MIC ([1]; colony pUC118-SPB2-DH5α (soil insert 2 selected against polymyxin B)): 16 µg/mL
MIC ([1]; colony pUC118-SSA1-DH5α (soil insert 1 selected against cathelicidin-DM)): 32 µg/mL
MIC ([1]; colony pUC118-SSA2-DH5α (soil insert 2 selected against cathelicidin-DM)): 32 µg/mL
MIC ([2]; colony pUC118-FCST1-JM109 (feces insert 1 selected against colistin)): 8 µg/mL
MIC ([2]; colony pUC118-FCST2-JM109 (feces insert 2 selected against colistin)): 8 µg/mL
MIC ([2]; colony pUC118-FGQ1-JM109 (feces insert 1 selected against melittin)): 8 µg/mL
MIC ([2]; colony pUC118-FGQ2-JM109 (feces insert 2 selected against melittin)): 16 µg/mL
MIC ([2]; colony pUC118-FIB1-JM109 (feces insert 1 selected against iseganan)): 16 µg/mL
MIC ([2]; colony pUC118-FIB2-JM109 (feces insert 2 selected against iseganan)): 32 µg/mL
MIC ([2]; colony pUC118-FPB1-JM109 (feces insert 1 selected against polymyxin B)): 32 µg/mL
MIC ([2]; colony pUC118-FPB2-JM109 (feces insert 2 selected against polymyxin B)): 8 µg/mL
MIC ([2]; colony pUC118-FSA1-JM109 (feces insert 1 selected against cathelicidin-DM)): 8 µg/mL
MIC ([2]; colony pUC118-FSA2-JM109 (feces insert 2 selected against cathelicidin-DM)): 8 µg/mL
MIC ([2]; colony pUC118-JM109 (control, no insert)): 8 µg/mL
MIC ([2]; colony pUC118-SCST1-JM109 (soil insert 1 selected against colistin)): 8 µg/mL
MIC ([2]; colony pUC118-SCST2-JM109 (soil insert 2 selected against colistin)): 8 µg/mL
MIC ([2]; colony pUC118-SGQ1-JM109 (soil insert 1 selected against melittin)): 8 µg/mL
MIC ([2]; colony pUC118-SGQ2-JM109 (soil insert 2 selected against melittin)): 8 µg/mL
MIC ([2]; colony pUC118-SIB1-JM109 (soil insert 1 selected against iseganan)): 32 µg/mL
MIC ([2]; colony pUC118-SIB2-JM109 (soil insert 2 selected against iseganan)): 16 µg/mL
MIC ([2]; colony pUC118-SPB1-JM109 (soil insert 1 selected against polymyxin B)): 8 µg/mL
MIC ([2]; colony pUC118-SPB2-JM109 (soil insert 2 selected against polymyxin B)): 8 µg/mL
MIC ([2]; colony pUC118-SSA1-JM109 (soil insert 1 selected against cathelicidin-DM)): 16 µg/mL
MIC ([2]; colony pUC118-SSA2-JM109 (soil insert 2 selected against cathelicidin-DM)): 16 µg/mL
MIC ([3]; colony pUC118-BL21(DE3) (control, no insert)): 16 µg/mL
MIC ([3]; colony pUC118-FCST1-BL21(DE3) (feces insert 1 selected against colistin)): 16 µg/mL
MIC ([3]; colony pUC118-FCST2-BL21(DE3) (feces insert 2 selected against colistin)): 16 µg/mL
MIC ([3]; colony pUC118-FGQ1-BL21(DE3) (feces insert 1 selected against melittin)): 16 µg/mL
MIC ([3]; colony pUC118-FGQ2- BL21(DE3) (feces insert 2 selected against melittin)): 32 µg/mL
MIC ([3]; colony pUC118-FIB1-BL21(DE3) (feces insert 1 selected against iseganan)): 32 µg/mL
MIC ([3]; colony pUC118-FIB2-BL21(DE3) (feces insert 2 selected against iseganan)): 32 µg/mL
MIC ([3]; colony pUC118-FPB1-BL21(DE3) (feces insert 1 selected against polymyxin B)): 32 µg/mL
MIC ([3]; colony pUC118-FPB2-BL21(DE3) (feces insert 2 selected against polymyxin B)): 16 µg/mL
MIC ([3]; colony pUC118-FSA1-BL21(DE3) (feces insert 1 selected against cathelicidin-DM)): 16 µg/mL
MIC ([3]; colony pUC118-FSA2-BL21(DE3) (feces insert 2 selected against cathelicidin-DM)): 16 µg/mL
MIC ([3]; colony pUC118-SCST1-BL21(DE3) (soil insert 1 selected against colistin)): 16 µg/mL
MIC ([3]; colony pUC118-SCST2-BL21(DE3) (soil insert 2 selected against colistin)): 16 µg/mL
MIC ([3]; colony pUC118-SGQ1-BL21(DE3) (soil insert 1 selected against melittin)): 16 µg/mL
MIC ([3]; colony pUC118-SGQ2-BL21(DE3) (soil insert 2 selected against melittin)): 16 µg/mL
MIC ([3]; colony pUC118-SIB1-BL21(DE3) (soil insert 1 selected against iseganan)): 32 µg/mL
MIC ([3]; colony pUC118-SIB2-BL21(DE3) (soil insert 2 selected against iseganan)): 32 µg/mL
MIC ([3]; colony pUC118-SPB1-BL21(DE3) (soil insert 1 selected against polymyxin B)): 16 µg/mL
MIC ([3]; colony pUC118-SPB2-BL21(DE3) (soil insert 2 selected against polymyxin B)): 16 µg/mL
MIC ([3]; colony pUC118-SSA1-BL21(DE3) (soil insert 1 selected against cathelicidin-DM)): 32 µg/mL
MIC ([3]; colony pUC118-SSA2-BL21(DE3) (soil insert 2 selected against cathelicidin-DM)): 16 µg/mL
